Assay results as given in ChEMBL document CHEMBL4184210, “Optimization of novel monobactams with activity against carbapenem-resistant Enterobacteriaceae - Identification of LYS228” (Bioorg Med Chem Lett, 2018).
In brackets after ≈: the same amount, converted by molar mass. Values belong to the compound of their own block, whether it stands above or below them.

How the values were obtained:
[1] = tested on: Escherichia coli; assay: Antimicrobial activity against Escherichia coli expressing beta-lactamase KPC-2 by CLSI broth microdilution method; format: functional
[2] = tested on: Escherichia coli; assay: Antimicrobial activity against Escherichia coli expressing beta-lactamase NDM-1 by CLSI broth microdilution method; format: functional
[3] = Chemical stability in pH 7.4 potassium phosphate buffer assessed as half life for compound hydrolysis at 37 degC by UPLC and mass spectrometry; format: physicochemical
[4] = tested on: Escherichia coli; assay: microbe, parasite or virus in culture
Description: Antimicrobial activity against wild type Escherichia coli by CLSI broth microdilution method

[5] = tested on: Escherichia coli; assay: microbe, parasite or virus in culture; remark: listed apart in the source
Description: Antimicrobial activity against Escherichia coli expressing beta-lactamase CTXM-15 by CLSI broth microdilution method

[6] = tested on: Escherichia coli; assay: microbe, parasite or virus in culture; remark: listed apart in the source
Description: Antimicrobial activity against Escherichia coli expressing beta-lactamase SHV-12 by CLSI broth microdilution method

[7] = tested on: Escherichia coli; assay: microbe, parasite or virus in culture; remark: listed apart in the source
Description: Antimicrobial activity against Escherichia coli expressing beta-lactamase TEM-10 by CLSI broth microdilution method

[8] = tested on: Escherichia coli; assay: microbe, parasite or virus in culture; remark: listed apart in the source
Description: Antimicrobial activity against Escherichia coli expressing beta-lactamase AmpC by CLSI broth microdilution method

[9] = tested on: Escherichia coli; assay: microbe, parasite or virus in culture; remark: listed apart in the source
Description: Antimicrobial activity against Escherichia coli expressing beta-lactamase CMY-2 by CLSI broth microdilution method

[10] = tested on: Escherichia coli; assay: microbe, parasite or virus in culture; remark: listed apart in the source
Description: Antimicrobial activity against Escherichia coli expressing beta-lactamase Oxa-48 by CLSI broth microdilution method

[11] = tested on: Escherichia coli; assay: Antimicrobial activity against Escherichia coli expressing beta-lactamase VEB-1 by CLSI broth microdilution method; format: functional
[12] = tested on: Escherichia coli; assay: Antimicrobial activity against Escherichia coli expressing beta-lactamase TEM-1 by CLSI broth microdilution method; format: functional
[13] = tested on: Escherichia coli; assay: Antimicrobial activity against Escherichia coli expressing beta-lactamase NDM-5 by CLSI broth microdilution method; format: functional
[14] = tested on: Escherichia coli; assay: microbe, parasite or virus in culture; remark: listed apart in the source
Description: Antimicrobial activity against Escherichia coli expressing beta-lactamase CTXM-3 by CLSI broth microdilution method

[15] = tested on: Escherichia coli; assay: microbe, parasite or virus in culture; remark: listed apart in the source
Description: Antimicrobial activity against Escherichia coli expressing beta-lactamase GES-1 by CLSI broth microdilution method

[16] = tested on: Escherichia coli; assay: microbe, parasite or virus in culture; remark: listed apart in the source
Description: Antimicrobial activity against Escherichia coli expressing beta-lactamase IMI-1 by CLSI broth microdilution method

[17] = tested on: Escherichia coli; assay: microbe, parasite or virus in culture; remark: listed apart in the source
Description: Antimicrobial activity against Escherichia coli expressing beta-lactamase KPC-3 by CLSI broth microdilution method

[18] = tested on: Escherichia coli; assay: microbe, parasite or virus in culture; remark: listed apart in the source
Description: Antimicrobial activity against Escherichia coli expressing beta-lactamase KPC-4 by CLSI broth microdilution method

[19] = tested on: Escherichia coli; assay: microbe, parasite or virus in culture; remark: listed apart in the source
Description: Antimicrobial activity against Escherichia coli expressing beta-lactamase KPC-8 by CLSI broth microdilution method

[20] = tested on: Escherichia coli; assay: microbe, parasite or virus in culture; remark: listed apart in the source
Description: Antimicrobial activity against Escherichia coli expressing beta-lactamase NMC-A by CLSI broth microdilution method

[21] = tested on: Escherichia coli; assay: microbe, parasite or virus in culture; remark: listed apart in the source
Description: Antimicrobial activity against Escherichia coli expressing beta-lactamase PER-1 by CLSI broth microdilution method

[22] = tested on: Escherichia coli; assay: microbe, parasite or virus in culture; remark: listed apart in the source
Description: Antimicrobial activity against Escherichia coli expressing beta-lactamase PER-2 by CLSI broth microdilution method

[23] = tested on: Escherichia coli; assay: microbe, parasite or virus in culture; remark: listed apart in the source
Description: Antimicrobial activity against Escherichia coli expressing beta-lactamase PER-4 by CLSI broth microdilution method

[24] = tested on: Escherichia coli; assay: microbe, parasite or virus in culture; remark: listed apart in the source
Description: Antimicrobial activity against Escherichia coli expressing beta-lactamase SME-1 by CLSI broth microdilution method

[25] = tested on: Escherichia coli; assay: microbe, parasite or virus in culture; remark: listed apart in the source
Description: Antimicrobial activity against Escherichia coli expressing beta-lactamase VEB-4 by CLSI broth microdilution method

[26] = tested on: Escherichia coli; assay: microbe, parasite or virus in culture; remark: listed apart in the source
Description: Antimicrobial activity against Escherichia coli expressing beta-lactamase VEB-7 by CLSI broth microdilution method

[27] = tested on: Escherichia coli; assay: microbe, parasite or virus in culture; remark: listed apart in the source
Description: Antimicrobial activity against Escherichia coli expressing beta-lactamase TEM-16 by CLSI broth microdilution method

[28] = tested on: Escherichia coli; assay: microbe, parasite or virus in culture; remark: listed apart in the source
Description: Antimicrobial activity against Escherichia coli expressing beta-lactamase TEM-24 by CLSI broth microdilution method

[29] = tested on: Escherichia coli; assay: microbe, parasite or virus in culture; remark: listed apart in the source
Description: Antimicrobial activity against Escherichia coli expressing beta-lactamase TEM-47 by CLSI broth microdilution method

[30] = tested on: Escherichia coli; assay: microbe, parasite or virus in culture; remark: listed apart in the source
Description: Antimicrobial activity against Escherichia coli expressing beta-lactamase TEM-121 by CLSI broth microdilution method

[31] = tested on: Escherichia coli; assay: microbe, parasite or virus in culture; remark: listed apart in the source
Description: Antimicrobial activity against Escherichia coli expressing beta-lactamase GIM-1 by CLSI broth microdilution method

[32] = tested on: Escherichia coli; assay: microbe, parasite or virus in culture; remark: listed apart in the source
Description: Antimicrobial activity against Escherichia coli expressing beta-lactamase IMP-1 by CLSI broth microdilution method

[33] = tested on: Escherichia coli; assay: microbe, parasite or virus in culture; remark: listed apart in the source
Description: Antimicrobial activity against Escherichia coli expressing beta-lactamase SPM-1 by CLSI broth microdilution method

[34] = tested on: Escherichia coli; assay: microbe, parasite or virus in culture; remark: listed apart in the source
Description: Antimicrobial activity against Escherichia coli expressing beta-lactamase VIM-1 by CLSI broth microdilution method

[35] = tested on: Escherichia coli; assay: microbe, parasite or virus in culture; remark: listed apart in the source
Description: Antimicrobial activity against Escherichia coli expressing beta-lactamase DHA by CLSI broth microdilution method

[36] = tested on: Escherichia coli; assay: microbe, parasite or virus in culture; remark: listed apart in the source
Description: Antimicrobial activity against Escherichia coli expressing beta-lactamase MIR-1 by CLSI broth microdilution method

[37] = tested on: Escherichia coli; assay: microbe, parasite or virus in culture; remark: listed apart in the source
Description: Antimicrobial activity against Escherichia coli expressing beta-lactamase P99 by CLSI broth microdilution method

[38] = tested on: Escherichia coli; assay: microbe, parasite or virus in culture; remark: listed apart in the source
Description: Antimicrobial activity against Escherichia coli expressing beta-lactamase Oxa-10 by CLSI broth microdilution method

[39] = tested on: Escherichia coli; assay: microbe, parasite or virus in culture; remark: listed apart in the source
Description: Antimicrobial activity against Escherichia coli expressing beta-lactamase Oxa-18 by CLSI broth microdilution method

[40] = tested on: Escherichia coli; assay: microbe, parasite or virus in culture; remark: listed apart in the source
Description: Antimicrobial activity against Escherichia coli expressing beta-lactamase Oxa-23 by CLSI broth microdilution method

[41] = tested on: Escherichia coli; assay: microbe, parasite or virus in culture; remark: listed apart in the source
Description: Antimicrobial activity against Escherichia coli expressing beta-lactamase Oxa-40 by CLSI broth microdilution method

[42] = tested on: Escherichia coli; assay: microbe, parasite or virus in culture; remark: listed apart in the source
Description: Antimicrobial activity against Escherichia coli expressing beta-lactamase Oxa-51 by CLSI broth microdilution method

[43] = tested on: Escherichia coli; assay: microbe, parasite or virus in culture; remark: listed apart in the source
Description: Antimicrobial activity against Escherichia coli expressing beta-lactamase Oxa-146 by CLSI broth microdilution method

[44] = tested on: Escherichia coli; assay: microbe, parasite or virus in culture; remark: listed apart in the source
Description: Antimicrobial activity against Escherichia coli expressing beta-lactamase Oxa-160 by CLSI broth microdilution method

[45] = tested on: Escherichia coli; assay: microbe, parasite or virus in culture; remark: listed apart in the source
Description: Antimicrobial activity against Escherichia coli expressing beta-lactamase Oxa-181 by CLSI broth microdilution method

[46] = tested on: Escherichia coli; assay: microbe, parasite or virus in culture; remark: listed apart in the source
Description: Antimicrobial activity against Escherichia coli expressing beta-lactamase Oxa-225 by CLSI broth microdilution method

Compound: CC(C)(O/N=C(\C(=O)N[C@@H]1C(=O)N(S(=O)(=O)O)[C@@H]1Cn1ccnn1)c1csc(N)n1)C(=O)O (stereo in doubt)
MIC [1]: 2 µg/mL (≈ 3.98 µM) | MIC [2]: 0.5 µg/mL (≈ 0.995 µM) | half-life [3]: 10.7 days | MIC [4]: 0.5 µg/mL (≈ 0.995 µM) | MIC [5]: 1 µg/mL (≈ 1.99 µM) | MIC [6]: 4 µg/mL (≈ 7.96 µM) | MIC [7]: 2 µg/mL (≈ 3.98 µM) | MIC [8]: 2 to 4 µg/mL (≈ 3.98 to 7.96 µM) | MIC [9]: 8 µg/mL (≈ 15.9 µM)

Compound: CC(C)(O/N=C(\C(=O)N[C@@H]1C(=O)N2C(C(=O)[O-])=C(C[n+]3ccccc3)CS[C@H]12)c1csc(N)n1)C(=O)O [CEFTAZIDIME]
MIC [1]: 8 µg/mL (≈ 14.6 µM) | MIC [11]: > 64 µg/mL | MIC [12]: 0.25 µg/mL (≈ 0.457 µM) | MIC [2]: > 64 µg/mL | MIC [13]: > 64 µg/mL | MIC [4]: 0.125 µg/mL (≈ 0.229 µM) | MIC [14]: 2 µg/mL (≈ 3.66 µM) | MIC [5]: 8 µg/mL (≈ 14.6 µM) | MIC [15]: 64 µg/mL (≈ 117 µM) | MIC [16]: 0.25 µg/mL (≈ 0.457 µM) | MIC [17]: 32 µg/mL (≈ 58.5 µM) | MIC [18]: > 64 µg/mL | MIC [19]: > 64 µg/mL | MIC [20]: 0.25 µg/mL (≈ 0.457 µM) | MIC [21]: > 64 µg/mL | MIC [22]: > 64 µg/mL | MIC [23]: > 64 µg/mL | MIC [6]: > 64 µg/mL | MIC [24]: 0.5 µg/mL (≈ 0.915 µM) | MIC [25]: > 64 µg/mL | MIC [26]: > 64 µg/mL | MIC [7]: > 64 µg/mL | MIC [27]: 64 µg/mL (≈ 117 µM) | MIC [28]: > 64 µg/mL | MIC [29]: 4 µg/mL (≈ 7.32 µM) | MIC [30]: 64 µg/mL (≈ 117 µM) | MIC [31]: 4 µg/mL (≈ 7.32 µM) | MIC [32]: > 64 µg/mL | MIC [33]: > 64 µg/mL | MIC [34]: > 64 µg/mL | MIC [8]: 8 µg/mL (≈ 14.6 µM) | MIC [35]: 16 µg/mL (≈ 29.3 µM) | MIC [9]: 64 µg/mL (≈ 117 µM) | MIC [36]: 8 µg/mL (≈ 14.6 µM) | MIC [37]: 8 µg/mL (≈ 14.6 µM) | MIC [38]: 0.125 µg/mL (≈ 0.229 µM) | MIC [39]: > 64 µg/mL | MIC [40]: 0.125 µg/mL (≈ 0.229 µM) | MIC [41]: 0.125 µg/mL (≈ 0.229 µM) | MIC [10]: 0.25 µg/mL (≈ 0.457 µM) | MIC [42]: 0.125 µg/mL (≈ 0.229 µM) | MIC [43]: 8 µg/mL (≈ 14.6 µM) | MIC [44]: 0.5 µg/mL (≈ 0.915 µM) | MIC [45]: 0.25 µg/mL (≈ 0.457 µM) | MIC [46]: 1 µg/mL (≈ 1.83 µM)

Compound: CCN1CCN(C(=O)N[C@@H](C(=O)N[C@@H]2C(=O)N3[C@@H]2SC(C)(C)[C@@H]3C(=O)O)c2ccccc2)C(=O)C1=O [PIPERACILLIN]
MIC [1]: > 64 µg/mL | MIC [11]: 32 µg/mL (≈ 61.8 µM) | MIC [12]: > 64 µg/mL | MIC [2]: > 64 µg/mL | MIC [13]: > 64 µg/mL | MIC [4]: 4 µg/mL (≈ 7.73 µM) | MIC [14]: > 64 µg/mL | MIC [5]: > 64 µg/mL | MIC [15]: > 64 µg/mL | MIC [16]: 64 µg/mL (≈ 124 µM) | MIC [17]: > 64 µg/mL | MIC [18]: > 64 µg/mL | MIC [19]: > 64 µg/mL | MIC [20]: 64 µg/mL (≈ 124 µM) | MIC [21]: 32 µg/mL (≈ 61.8 µM) | MIC [22]: > 64 µg/mL | MIC [23]: 8 µg/mL (≈ 15.5 µM) | MIC [6]: > 64 µg/mL | MIC [24]: > 64 µg/mL | MIC [25]: 8 µg/mL (≈ 15.5 µM) | MIC [26]: 32 µg/mL (≈ 61.8 µM) | MIC [7]: > 64 µg/mL | MIC [27]: 64 µg/mL (≈ 124 µM) | MIC [28]: 16 µg/mL (≈ 30.9 µM) | MIC [29]: 64 µg/mL (≈ 124 µM) | MIC [30]: 64 µg/mL (≈ 124 µM) | MIC [31]: > 64 µg/mL | MIC [32]: 16 µg/mL (≈ 30.9 µM) | MIC [33]: 64 µg/mL (≈ 124 µM) | MIC [34]: > 64 µg/mL | MIC [8]: > 64 µg/mL | MIC [35]: 64 µg/mL (≈ 124 µM) | MIC [9]: 32 µg/mL (≈ 61.8 µM) | MIC [36]: 8 µg/mL (≈ 15.5 µM) | MIC [37]: 32 µg/mL (≈ 61.8 µM) | MIC [38]: > 64 µg/mL | MIC [39]: > 64 µg/mL | MIC [40]: > 64 µg/mL | MIC [41]: > 64 µg/mL | MIC [10]: > 64 µg/mL | MIC [42]: 8 µg/mL (≈ 15.5 µM) | MIC [43]: > 64 µg/mL | MIC [44]: 64 µg/mL (≈ 124 µM) | MIC [45]: > 64 µg/mL | MIC [46]: > 64 µg/mL

Results, then the compound that gave them:

MIC [1]: 1 µg/mL (≈ 1.99 µM) | MIC [2]: 0.5 µg/mL (≈ 0.995 µM) | half-life [3]: 40.8 days | MIC [4]: 0.5 µg/mL (≈ 0.995 µM) | MIC [5]: 0.5 µg/mL (≈ 0.995 µM) | MIC [6]: 1 µg/mL (≈ 1.99 µM) | MIC [7]: 2 µg/mL (≈ 3.98 µM) | MIC [8]: 8 µg/mL (≈ 15.9 µM)
Compound: CC(C)(O/N=C(\C(=O)N[C@@H]1C(=O)N(S(=O)(=O)O)[C@@H]1Cn1nccn1)c1csc(N)n1)C(=O)O (stereo in doubt)

MIC [1]: 0.5 µg/mL (≈ 0.961 µM) | MIC [2]: 0.5 µg/mL (≈ 0.961 µM) | half-life [3]: 20.1 days | MIC [4]: 0.5 µg/mL (≈ 0.961 µM) | MIC [5]: 0.5 to 1 µg/mL (≈ 0.961 to 1.92 µM) | MIC [6]: 1 µg/mL (≈ 1.92 µM) | MIC [7]: 2 µg/mL (≈ 3.84 µM) | MIC [8]: 2 µg/mL (≈ 3.84 µM) | MIC [9]: 4 µg/mL (≈ 7.68 µM)
Compound: CC(C)(O/N=C(\C(=O)N[C@@H]1C(=O)N(S(=O)(=O)O)[C@@H]1CN1CCOC1=O)c1csc(N)n1)C(=O)O (stereo in doubt)

MIC [1]: 0.25 µg/mL (≈ 0.537 µM) | MIC [2]: 0.25 µg/mL (≈ 0.537 µM) | half-life [3]: 4.17 days | MIC [4]: 0.25 µg/mL (≈ 0.537 µM) | MIC [5]: 1 µg/mL (≈ 2.15 µM) | MIC [6]: > 32 µg/mL | MIC [8]: 0.5 µg/mL (≈ 1.07 µM) | MIC [10]: 0.25 µg/mL (≈ 0.537 µM)
Compound: CC(C)(O/N=C(/C(=O)N[C@@H]1C(=O)N(OS(=O)(=O)O)C1(C)C)c1csc(N)n1)C(=O)O (stereo in doubt)
